Laboratory results from patent US20150148311A1, “NON-SYSTEMIC TGR5 AGONISTS” (Ardelyx, Inc., priority 2011, published 2015).

Legend:
[1] = Compound concentration in gall bladder, LC-MS/MS, 8 h post dose; format: in vivo; conditions: 30 mg/kg; for Number of Mice with Gallbladder Concentration < LLOQ: mice below LLOQ / mice in group
How it was run: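 Gallbladder with its contents excised from isoflurane-anesthetized mice 8 h after dosing and homogenized in water. Homogenate diluted 1:5, precipitated with acetonitrile and measured by LC-MS/MS. Levels interpolated from per-compound standard curves in vehicle-treated gallbladder homogenate.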

[2] = Compound plasma concentration, LC-MS/MS, 8 h post dose; format: in vivo; conditions: 30 mg/kg; for Number of Mice with Plasma Concentration < LLOQ: mice below LLOQ / mice in group; for concentration at 8 h: male, C57BL/6, mouse, mice, plasma, read-out: Mean Example Plasma Concentration
How it was run: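 Blood was taken from the left ventricle 8 h after dosing, under isoflurane anesthesia, into EDTA tubes containing aprotinin and DPPIV inhibitor. Plasma was protein-precipitated with acetonitrile containing an internal standard, and supernatants were analyzed by LC-MS/MS against a plasma standard curve.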

human IBAT = biological target: T1, human IBAT (Homo sapiens, UniProt Q12908); assay: IBAT counter screen, [3H]taurocholic acid uptake in IBAT-transfected HEK293 cells; format: cell-based; conditions: read-out: pEC50 human IBAT (converted)
T1 construct: expressed in transfected cells; host or cells: HEK293
T1 sequence (Q12908 1-348): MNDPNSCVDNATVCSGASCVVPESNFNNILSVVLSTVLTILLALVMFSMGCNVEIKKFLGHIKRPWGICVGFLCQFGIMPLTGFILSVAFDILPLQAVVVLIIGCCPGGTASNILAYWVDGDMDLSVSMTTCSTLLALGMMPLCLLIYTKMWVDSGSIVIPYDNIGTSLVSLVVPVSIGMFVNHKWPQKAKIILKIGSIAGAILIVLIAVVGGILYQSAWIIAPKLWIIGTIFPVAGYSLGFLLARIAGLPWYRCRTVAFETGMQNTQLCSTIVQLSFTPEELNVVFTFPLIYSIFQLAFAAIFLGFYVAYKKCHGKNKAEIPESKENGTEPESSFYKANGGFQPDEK
Protocol: Following a 40-min incubation, the solution was removed, and the cells were washed twice with uptake buffer. Cells were lysed by addition of 20 μL 0.1% Tween 80 followed by 100 μL scintillation fluid and counted using a TopCount (Perkin Elmer).

human FXR = biological target: T2, human FXR (Homo sapiens, UniProt Q96RI1); assay: FXR counter screen, cell-based luciferase reporter assay; conditions: cells expressing human FXR and FXR-responsive luciferase reporter, 0.4 to 50 μM test compound; read-out: pEC50 human FXR (converted)
T2 construct: purchased Indigo Biosciences (State College, Pa.)
T2 sequence (Q96RI1 1-486): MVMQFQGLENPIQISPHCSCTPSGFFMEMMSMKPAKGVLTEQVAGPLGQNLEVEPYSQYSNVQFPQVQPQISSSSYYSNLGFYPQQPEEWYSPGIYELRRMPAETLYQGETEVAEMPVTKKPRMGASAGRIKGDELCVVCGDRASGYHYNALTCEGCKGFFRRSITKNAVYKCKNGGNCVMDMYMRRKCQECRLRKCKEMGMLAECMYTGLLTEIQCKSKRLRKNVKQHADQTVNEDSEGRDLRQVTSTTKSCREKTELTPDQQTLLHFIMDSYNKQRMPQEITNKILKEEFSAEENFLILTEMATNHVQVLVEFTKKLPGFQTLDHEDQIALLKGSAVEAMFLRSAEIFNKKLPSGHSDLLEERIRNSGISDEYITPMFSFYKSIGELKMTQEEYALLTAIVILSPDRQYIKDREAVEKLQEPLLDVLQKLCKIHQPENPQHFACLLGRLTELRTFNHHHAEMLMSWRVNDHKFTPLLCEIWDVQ
Protocol: FXR: The ability of test compounds to activate FXR (NR1H4) was measured using a cell-based assay kit obtained from Indigo Biosciences (State College, Pa.).

C57BL/6 male mice = assay: In vivo gallbladder measurement (weight) 16 hours post-dose; conditions: 30 mg/kg
CD-1 female mice = assay: In vivo measurement of CCK-mediated gallbladder emptying (egg yolk); conditions: fasted ~16 h, oral 30 mg/kg (devazepide 1 mg/kg) 1 h before egg yolk, gallbladder weighed 15 min later (FIG. 1)
Protocol: CD-1 female mice on regular chow had food removed (to prevent gallbladder emptying) in the late evening. The next morning (˜16 h later), groups of mice were dosed orally with vehicle (10% hydroxypropyl-β-cyclodextrin; 2 groups), devazepide in water (1 mg/kg; […]. One hour later, 1 group of vehicle-treated mice was dosed orally with saline, and all other groups were dosed orally with lyophilized egg yolk [0.75 mL; 30% (wt/vol) reconstituted in saline for induction of CCK-mediated gallbladder emptying]. Fifteen minutes later, mice were heavily anesthetized with isoflurane, the peritoneal cavity was opened and gallbladders (with contents) were carefully excised and weighed.

total (t) GLP-1 = assay: Time course of in vivo induction of total GLP-1; conditions: C57BL/6 male mice, 30 mg/kg oral, 4, 8, 12 and 16 h
Protocol: (§1) C57BL/6 male mice on regular chow received an oral dose of vehicle (2% DMSO in 0.4% hydroxypropyl methylcellulose) or examples 176 or 178 (at 30 mg/kg). Food was removed prior to/or at the time of dosing: 4, 8, 12, and 16 h groups fasted for 7, 8, 12 and 16 h, respectively. At the appropriate time after dosing, mice were heavily anesthetized with isoflurane, and blood was collected from the left ventricle of the heart and processed to plasma as described in Example 293 for measurement of total (t) GLP-1 and, additionally, total (t)PYY (N45ZA-1; Meso Scales Discovery, Gaithersburg Md.).

total (t)PYY = assay: Time course of in vivo induction of total PYY; conditions: C57BL/6 male mice; for induction of tPYY levels following a single oral dose: 30 mg/kg oral, 4, 8, 12 and 16 h
Protocol: as §1

mice = conditions: i.p. injection, in 30 minutes, literature (Li et al. 2011); cited from earlier work

| Number of Mice with Gallbladder Concentration < LLOQ [1] | Number of Mice with Plasma Concentration < LLOQ [2] | concentration at 8 h [2] | EC50 (human IBAT) | EC50 (human FXR) | inhibition of CCK-mediated gallbladder emptying (CD-1 female mice) | concentration at 8 h ([1]; male, C57BL/6, mouse, with contents, mice, gallbladder homogenate, read-out: Mean Example Gallbladder Concentration) | SMILES | effect on gallbladder weight/body weight (C57BL/6 male mice) | induction of tGLP-1 levels following a single oral dose (total (t) GLP-1) | induction of tPYY levels following a single oral dose (total (t)PYY) | times after dosing at which tPYY levels were significantly elevated (total (t)PYY; 30 mg/kg oral, tested 4, 8, 12 and 16 h (FIG. 2, panel B)) | increase of gallbladder volume (mice) |
| --- | --- | --- | --- | --- | --- | --- | --- | --- | --- | --- | --- | --- |
| 0/8 | 8/8 | < 1 ng/mL | > 25.1 µM | > 50.1 µM | did not inhibit |  | O=C(CCCCc1cc(Cl)c(CN2CSC[C@H]2C(=O)N2CCN(C3CC3)c3ccccc32)cc1Cl)NC[C@H](O)[C@@H](O)[C@H](O)[C@H](O)CO [Example 178, 5-(2,5-dichloro-4-(((R)-4-(4-cyclopropyl-1,2,3,4-tetrahydroquinoxaline-1-carbonyl)thiazolidin-3-yl)methyl)phenyl)-N-((2S,3R,4R,5R)-2,3,4,5,6-pentahydroxyhexyl)pentanamide] | no significant effect | sustained induction | sustained induction | 8 h |  |
| 0/8 | 8/8 | < 2 ng/mL |  |  | did not inhibit | 100 nM | O=C(NC[C@H](O)[C@@H](O)[C@H](O)[C@H](O)CO)c1ccc(COc2cc(Cl)c(CN3CSC[C@H]3C(=O)N3CCN(C4CC4)c4ccccc43)cc2Cl)cc1 [Example 176, 4-(2,5-dichloro-4-{[(4R)-4-[(4-cyclopropyl-1,2,3,4-tetrahydroquinoxalin-1-yl)carbonyl]-1,3-thiazolidin-3-yl]methyl}phenoxymethyl)-N-[(2S,3R,4R,5R)-2,3,4,5,6-pentahydroxyhexyl]benzamide] | no significant effect | sustained induction | sustained induction |  |  |
|  |  |  |  |  |  |  | CC[C@H]1[C@@H](O)[C@@H]2[C@H](C[C@H](O)[C@]3(C)[C@@H]([C@H](C)C[C@H](C)C(=O)O)CC[C@@H]23)[C@@]2(C)CC[C@@H](O)C[C@@H]12 [INT-777] |  |  |  |  | approximately two-fold |
